Data as given in US20250009691A1, “DIALYSIS FLUID COMPRISING KETONE BODIES FOR THE TREATMENT OF CANCER” (GAMBRO LUNDIA AB, priority 2021, published 2025).

Key:
Type in all cases: cell-based, human
[1] = test system: A172 (glioblastoma); test: Study 2: CellTiter-Glo viability, DMEM without sodium pyruvate; conditions: BOHB 0/4/12 mM, 3 d
Experimental: (§1) Cell lines established from human colon carcinoma (HCT15, NCI-H508 and COLO205), renal cell carcinoma (769-P, 786-O and RCC4) and glioblastoma (LN-18, A-172 and U-118 MG) were selected for the analysis. All cell lines were obtained from American Type Culture Collection (ATCC, LGC standards, UK) except for RCC4 and HCT15 that was purchased from Sigma-Aldrich (Merck, Germany). In addition, primary human renal cell carcinoma (RCC) cells isolated from patient nephrectomies were included in the study. […]
(§2) Optimal seeding density was determined for each cell line in 96 well plates according to the “Protocol for optimizing cell seeding densities to ensure Log-phase growth”. […] Cover the plate. • Incubate the plate overnight at 37° C., 5% CO2. • Add 50 μL of fresh media to the plate wells to achieve a final volume of 200 µL and incubate for 72 h at 37° C., 5% CO2. • Measure viability using Cell Titer Glo assay according to manufacturer's protocol. • Plot log cell number against luminescence intensity to identify the concentration of cells at which log growth is achieved.
(§3) CellTiter-Glo Luminescent cell viability assay (Promega) was used as a readout of viability.
(§4) For each cell line, optimal number of cells as determined above were seeded into 96-well plates on day 0. […]

[2] = test system: RCC4 (renal cell carcinoma); test: as above; conditions: BOHB 0/4/12 mM, 3 d
Experimental: as §1, §2, §3, §4

[3] = test system: glioma cell line A172; test: Example 2: BOHB and Acac added alone or in combination to Medium A-C (CellTiter-Glo); conditions: for growth, repetition experiments 2-6: BOHB or Acac added separately, FIG. 9, inconsistent results; for number of cells compared to 8 mM LiCl control: 8 mM Acac
Experimental: (§5) Stock solutions of DL-β-Hydroxybutyric acid sodium salt (H6501, Sigma Aldrich) and Lithium Acetoacetate (A8509, Sigma Aldrich) were prepared in water, sterile filtered, aliquoted and stored at −20° C. Lithium Chloride (L7026, Sigma Aldrich) was used as a control for the addition of Lithium in the Li-Acac.
(§6) CellTiter-Glo Luminescent cell viability assay (Promega) was used as a readout of cell numbers according to the manufacturers' instructions. In experiments shown in FIGS. 7-8, double plates were seeded and treated. One set of plates was used for collection of medium for lactate measurement (see below) and the CellTiterGlo-assay. The other set of plates was frozen at −80° C. at the end of the experiment. The frozen plates were intended for the CyQuant cell proliferation assay (Thermo Fisher) that measures the amount of DNA per well. Analysis of the amounts of cells by both CellTiterGlo and CyQuant assays would ensure that effects of the culture conditions on viability or growth rate would not be concealed by simultaneous changes in ATP-levels per cell.
(§7) Next, it was decided to also include Acac in the study and analyze the viability of cells cultured in the presence of BOHB and Acac alone or in combination in Medium A-C. The experiment was performed at 21% and 5% O2. The experiments were made with glioma cell lines A172 and U118MG.
(§8) Being a chiral molecule, BOHB exists as two enantiomers, D- and L-BOHB. D-BOHB is normally produced and metabolized in humans. The BOHB-salt used in this study contains a mixture of 50:50 of D- and L-BOHB. In order to ensure a high presence of the active D-form, the total concentration of BOHB added was increased to 16 mM, giving a level of 8 mM D-BOHB. To keep the total concentration of active ketones constant, 8 mM Acac was used, and for the combination of both ketones, the levels were adjusted to 4 mM Acac and 8 mM BOHB (containing 4 mM D-BOHB).
(§9) The Acac available for in vitro use is in the form of a lithium salt. Since lithium itself can affect the viability of cancer cells [Cohen-Harazi et al., Anticancer Res 2020; 40:3831-3837], 8 mM LiCl was used as a control for the 8 mM Acac data point and 4 mM LiCl was used as a control for the 4 mM Acac/8 mM BOHB data.
(§10) At the end of the experiment, the culture media from each well was collected and frozen to enable later determination of lactate levels as a measurement of the metabolic state. In addition, double experiments were performed, where one set of plates were frozen for later quantification of cell numbers using the CyQuant proliferation assay, and the amounts of cells in the other set were analyzed by CellTiterGlo viability assay.

[4] = test system: glioma cell line U118MG; test: as above; conditions: for number of cells compared to 8 mM LiCl control: 8 mM Acac
Experimental: as §5, §6, §7, §8, §9, §10

[5] = test system: renal carcinoma cell line RCC4; test: Example 2: BOHB and Acac added alone or in combination to Medium B-C (CellTiter-Glo); conditions: nutrient restricted Medium C
Experimental: as §5, §6
Being a chiral molecule, BOHB exists as two enantiomers, D- and L-BOHB. D-BOHB is normally produced and metabolized in humans. The BOHB-salt used in this study contains a mixture of 50:50 of D- and L-BOHB. […]

[6] = Medium A, 16 mM BOHB alone, both normoxia and hypoxia, 3 days
[7] = Medium C, 16 mM BOHB, both 21 and 5% O2
[8] = Medium A, both normoxia and hypoxia

| SMILES | proliferation of cells with increase in the concentration of BOHB [1] | proliferation of cells with increase in the concentration of BOHB [2] | growth inhibitory effect [3, 6] | number of cells, % of the amount in Medium B without BOHB ([3]; Medium B, hypoxic) | number of cells, % compared to C-medium without BOHB [3, 7] | growth, repetition experiments 2-6 ([3]; Medium C) | growth inhibitory effect [4, 6] | number of cells, % compared to C-medium without BOHB [4, 7] | increased sensitivity to high levels of BOHB or a combination of BOHB and Acac [5] | number of cells compared to 8 mM LiCl control [3, 8] | number of cells compared to 8 mM LiCl control ([3]; Medium B, only at 21% O2) | amounts of cells compared to 8 mM LiCl control ([3]; Medium C, 8 mM Acac alone) | number of cells compared to 8 mM LiCl control [4, 8] | number of cells compared to 8 mM LiCl control ([4]; Medium B, only at 21% O2) | amounts of cells compared to 8 mM LiCl control ([4]; Medium C, 8 mM Acac alone) |
| --- | --- | --- | --- | --- | --- | --- | --- | --- | --- | --- | --- | --- | --- | --- | --- |
| CC(O)CC(=O)[O-].[Na+] (racemic) [BOHB, DL-β-Hydroxybutyric acid sodium salt] | suppresses the proliferation of cells | suppresses the proliferation of cells | no growth inhibitory effect | approximately 70% | around 30% | trend of reduced growth | no growth inhibitory effect | around 30% | not found | – | – | – | – | – | – |
| CC(=O)CC(=O)[O-].[Li+] [Acac, Lithium Acetoacetate] | – | – | – | – | – | trend of reduced growth | – | – | – | did not reduce the number of cells further | reduced the number of cells significantly | did not significantly reduce the amounts of cells | did not reduce the number of cells further | reduced the number of cells significantly | did not significantly reduce the amounts of cells |
